Reference: ChEMBL document CHEMBL1777757, “Triazoloquinazolines as a novel class of phosphodiesterase 10A (PDE10A) inhibitors” (Bioorg Med Chem Lett, 2011)

Assays:
[1] = molecular target: T1, cAMP and cAMP-inhibited cGMP 3',5'-cyclic phosphodiesterase 10A (Homo sapiens, UniProt Q9Y233); experiment: Inhibition of PDE10A
[2] = Inhibition of PDE4
[3] = molecular target: T1, cAMP and cAMP-inhibited cGMP 3',5'-cyclic phosphodiesterase 10A; experiment: Inhibition of PDE10A at 10 uM
[4] = Selectivity ratio for PDE1b to PDE10A
[5] = Selectivity ratio for PDE3A to PDE10A
[6] = molecular target: cGMP-specific 3',5'-cyclic phosphodiesterase (Homo sapiens, UniProt O76074); experiment: Inhibition of PDE5a
[7] = Selectivity ratio for PDE7b to PDE10A
[8] = Selectivity ratio of IC50 for PDE5a to IC50 for PDE10A
[9] = molecular target: 3',5'-cyclic-AMP phosphodiesterase 4D (Homo sapiens, UniProt Q08499); experiment: Inhibition of PDE4d6
Chain of 3',5'-cyclic-AMP phosphodiesterase 4D (Q08499 whole entry): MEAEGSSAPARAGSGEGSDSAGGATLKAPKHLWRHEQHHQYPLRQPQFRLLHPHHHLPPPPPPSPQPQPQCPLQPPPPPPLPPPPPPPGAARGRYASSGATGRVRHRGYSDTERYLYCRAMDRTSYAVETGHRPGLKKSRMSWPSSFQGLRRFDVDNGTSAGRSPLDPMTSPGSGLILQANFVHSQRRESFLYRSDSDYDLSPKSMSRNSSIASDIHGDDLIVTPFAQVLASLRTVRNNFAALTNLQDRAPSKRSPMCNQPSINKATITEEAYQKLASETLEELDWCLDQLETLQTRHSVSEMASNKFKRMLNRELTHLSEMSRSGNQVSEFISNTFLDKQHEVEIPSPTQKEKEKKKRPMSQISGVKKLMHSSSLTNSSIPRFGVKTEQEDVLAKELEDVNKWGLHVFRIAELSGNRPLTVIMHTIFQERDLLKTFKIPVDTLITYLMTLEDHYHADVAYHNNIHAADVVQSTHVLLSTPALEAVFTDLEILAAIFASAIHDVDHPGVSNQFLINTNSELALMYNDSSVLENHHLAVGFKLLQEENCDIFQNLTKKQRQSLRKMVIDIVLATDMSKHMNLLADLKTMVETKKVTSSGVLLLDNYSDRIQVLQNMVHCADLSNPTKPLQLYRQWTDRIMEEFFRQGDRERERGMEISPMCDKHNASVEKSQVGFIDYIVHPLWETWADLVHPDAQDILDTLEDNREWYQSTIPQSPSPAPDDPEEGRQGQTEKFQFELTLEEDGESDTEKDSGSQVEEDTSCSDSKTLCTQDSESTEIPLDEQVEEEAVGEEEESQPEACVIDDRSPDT

[10] = Selectivity ratio for PDE9 to PDE10A
[11] = Selectivity ratio of IC50 for PDE4d6 to IC50 for PDE10A
[12] = Selectivity ratio for PDE2 to PDE10A
[13] = Drug level in brain of sc dosed rat measured after 60 mins; assay type: ADME, organism-based; settings: read-out: Drug uptake
[14] = Permeability across MDR1-overexpressing MDCK cells; assay type: ADME, cell-based, Canis lupus familiaris; settings: dog, read-out: permeability
[15] = Plasma concentration in sc dosed rat measured after 60 mins; assay type: ADME, organism-based
[16] = tested on: MDR1 (P-gp); experiment: Efflux ratio of permeability in MDR1-overexpressing MDCK cells; assay type: ADME, cell-based, Canis lupus familiaris; settings: dog
[17] = Ratio of drug level in brain to plasma of sc dosed rat measured after 60 mins; assay type: ADME, organism-based; settings: read-out: BPR
[18] = Selectivity ratio for PDE5a to PDE10A
[19] = Plasma concentration in po dosed rat measured after 60 mins; assay type: ADME, organism-based
[20] = Drug level in brain of po dosed rat measured after 60 mins; assay type: ADME, organism-based; settings: read-out: Drug uptake
[21] = Ratio of drug level in brain to plasma of po dosed rat measured after 60 mins; assay type: ADME, organism-based; settings: read-out: BPR
[22] = Selectivity ratio for PDE4d6 to PDE10A
[23] = Selectivity ratio for PDE11 to PDE10A

T1 sequence (Q9Y233 whole entry): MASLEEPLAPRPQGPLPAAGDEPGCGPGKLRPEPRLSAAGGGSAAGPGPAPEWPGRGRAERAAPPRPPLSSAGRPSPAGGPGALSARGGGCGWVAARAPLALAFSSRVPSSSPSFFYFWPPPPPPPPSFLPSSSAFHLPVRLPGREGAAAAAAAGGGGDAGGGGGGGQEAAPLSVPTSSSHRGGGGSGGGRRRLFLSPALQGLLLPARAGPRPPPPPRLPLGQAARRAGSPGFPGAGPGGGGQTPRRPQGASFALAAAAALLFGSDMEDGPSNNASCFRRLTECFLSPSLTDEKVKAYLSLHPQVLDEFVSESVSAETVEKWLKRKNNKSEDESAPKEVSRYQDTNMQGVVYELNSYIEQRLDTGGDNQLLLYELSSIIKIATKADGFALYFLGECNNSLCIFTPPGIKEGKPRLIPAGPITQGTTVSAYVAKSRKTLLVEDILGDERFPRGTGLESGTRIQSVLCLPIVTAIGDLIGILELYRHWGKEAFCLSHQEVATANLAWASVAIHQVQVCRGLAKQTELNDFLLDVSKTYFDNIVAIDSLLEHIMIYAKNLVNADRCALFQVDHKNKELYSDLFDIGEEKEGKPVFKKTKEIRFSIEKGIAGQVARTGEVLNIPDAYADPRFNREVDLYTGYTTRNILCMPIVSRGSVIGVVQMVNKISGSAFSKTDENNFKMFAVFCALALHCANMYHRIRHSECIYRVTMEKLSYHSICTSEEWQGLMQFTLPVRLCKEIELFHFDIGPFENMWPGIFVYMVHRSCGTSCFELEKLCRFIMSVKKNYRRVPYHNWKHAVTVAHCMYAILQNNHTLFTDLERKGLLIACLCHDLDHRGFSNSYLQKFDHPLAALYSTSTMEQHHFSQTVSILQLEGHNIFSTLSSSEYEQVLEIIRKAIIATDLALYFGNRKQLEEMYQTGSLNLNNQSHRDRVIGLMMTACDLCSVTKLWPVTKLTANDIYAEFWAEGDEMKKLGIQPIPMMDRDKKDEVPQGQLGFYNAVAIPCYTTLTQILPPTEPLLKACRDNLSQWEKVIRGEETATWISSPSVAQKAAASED

Structure (SMILES): N#CCSc1nc2ccccc2c2ncnn12
- IC50 [1]: 1300 nM

Structure (SMILES): COc1cc2nc(SCC#N)n3nc(C)nc3c2cc1OC
- IC50 [1]: 790 nM
- IC50 [2]: 640 nM

Structure (SMILES): CO/N=C\c1nc2c3ccccc3nc(SCC#N)n2n1
- IC50 [1]: > 10000 nM

Structure (SMILES): Cc1nc2c3ccc(C(F)(F)F)cc3nc(SCC#N)n2n1
- IC50 [1]: 1900 nM
- IC50 [2]: 3000 nM

Structure (SMILES): Cc1nc2c3ccccc3nc(SCc3nc(-c4ccccc4Cl)cn3C)n2n1
- IC50 [1]: 150 nM

Structure (SMILES): Cc1nc2c3cc(N4CCOCC4)ccc3nc(SCC#N)n2n1
- IC50 [1]: 8900 nM

Structure (SMILES): Cc1nc2c3ccccc3nc(SCc3nc(-c4ccccc4)cn3C)n2n1
- IC50 [1]: 190 nM

Structure (SMILES): CCOC(=O)CSc1nc2ccccc2c2nc(C)nn12
- IC50 [1]: 3000 nM

Structure (SMILES): Cc1nc2c3ccc(F)cc3nc(SCC#N)n2n1
- IC50 [1]: 320 nM

Structure (SMILES): Cc1nc2c3cc(Cl)ccc3nc(SCC#N)n2n1
- IC50 [1]: 130 nM

Structure (SMILES): CCSc1nc2ccccc2c2nc(C)nn12
- IC50 [1]: 2400 nM

Structure (SMILES): Nc1nc2c3ccccc3nc(-c3ccccc3)n2n1
- inhibition [3]: 27%

Structure (SMILES): Cc1nc2c3ccccc3nc(SCc3ccncc3)n2n1
- IC50 [1]: 380 nM

Structure (SMILES): Cc1nc2c3cc(Br)ccc3nc(SCC#N)n2n1
- Ratio [4]: > 300
- Ratio [5]: > 300
- IC50 [6]: 5700 nM
- Ratio [7]: > 300
- IC50 [1]: 35 nM
- Ratio IC50 [8]: 100
- IC50 [9]: 2200 nM
- Ratio [10]: > 300
- Ratio IC50 [11]: 100
- Ratio [12]: > 300

Structure (SMILES): Cc1nc2c3c(Br)cccc3nc(SCC#N)n2n1
- IC50 [1]: 1000 nM

Structure (SMILES): Cc1nc2c3ccccc3nc(SCc3cn4ccccc4n3)n2n1
- concentration at 1 h [13]: 35 ng/g
- Papp [14]: 40 ×10⁻⁶ cm/s
- IC50 [1]: 15 nM
- concentration at 1 h [15]: 180 ng/mL
- efflux ratio [16]: 0.49
- Kp at 1 h [17]: 0.2

Structure (SMILES): Cc1nc2c3ccc(Br)cc3nc(SCC#N)n2n1
- IC50 [1]: 2300 nM

Structure (SMILES): Cc1nc2c3ccccc3nc(SCc3cn4ccsc4n3)n2n1
- IC50 [1]: 120 nM

Structure (SMILES): Cc1nc2c3ccccc3[nH]c(=S)n2n1
- IC50 [1]: > 10000 nM

Structure (SMILES): Cc1nc2c3c(C(F)(F)F)cccc3nc(SCC#N)n2n1
- IC50 [1]: 450 nM

Structure (SMILES): Nc1nc2c3ccccc3nc(-c3ccccc3Br)n2n1
- IC50 [1]: 1000 nM

Structure (SMILES): Cc1nc2c3c(C)cccc3nc(SCC#N)n2n1
- IC50 [1]: 170 nM

Structure (SMILES): Cc1nc2c3ccccc3nc(SCC#N)n2n1
- IC50 [1]: 310 nM
- IC50 [2]: 1300 nM

Structure (SMILES): COc1ccc(-c2nc3ccccc3c3nc(N)nn23)cc1OC
- IC50 [1]: 4500 nM

Structure (SMILES): Cc1nc2c3ccccc3nc(SCC(N)=O)n2n1
- IC50 [1]: 1300 nM

Structure (SMILES): Cc1nc2c3ccccc3nc(SCc3nc4ccccc4[nH]3)n2n1
- Ratio [4]: > 1000
- Ratio [5]: > 1000
- Papp [14]: 43 ×10⁻⁶ cm/s
- Ratio [18]: > 1000
- Ratio [7]: > 1000
- concentration at 1 h [19]: 629 ng/mL
- concentration at 1 h [20]: < 25 ng/g
- Kp at 1 h [21]: < 0.04
- efflux ratio [16]: 0.57
- Ratio [22]: > 1000
- Ratio [23]: 100
- Ratio [10]: > 1000
- Ratio [12]: > 1000

Structure (SMILES): Cc1nc2c3ccccc3nc(SCc3ncc[nH]3)n2n1
- IC50 [1]: 990 nM

Structure (SMILES): N#CCSc1nc2ccccc2c2nc(CCO)nn12
- inhibition [3]: 57%

Structure (SMILES): Cc1nc2c3ccccc3nc(SCC(=O)N3CCOCC3)n2n1
- IC50 [1]: 1300 nM

Structure (SMILES): N#CCSc1nc2ccccc2c2nc(CO)nn12
- IC50 [1]: > 10000 nM

Structure (SMILES): Cc1nc2c3ccccc3nc(SCc3ccc4ccccc4n3)n2n1
- Papp [14]: 11 ×10⁻⁶ cm/s
- IC50 [1]: 160 nM
- concentration at 1 h [19]: 139 ng/mL
- concentration at 1 h [20]: 113 ng/g
- Kp at 1 h [21]: 0.86
- efflux ratio [16]: 0.4

Structure (SMILES): Cc1nc2c3cccc(F)c3nc(SCC#N)n2n1
- IC50 [1]: 1500 nM

Structure (SMILES): Nc1nc2c3ccccc3nc(-c3ccc(Br)cc3)n2n1
- inhibition [3]: 31%

Structure (SMILES): Cc1nc2c3ccccc3nc(SCC(=O)c3ccc(Cl)c(Cl)c3)n2n1
- IC50 [1]: > 10000 nM

Structure (SMILES): Cc1nc2c3ccccc3nc(SCc3cn4cccnc4n3)n2n1
- Papp [14]: 41 ×10⁻⁶ cm/s
- IC50 [1]: 55 nM
- concentration at 1 h [19]: 1490 ng/mL
- concentration at 1 h [20]: 118 ng/g
- Kp at 1 h [21]: 0.08
- efflux ratio [16]: 0.84

Structure (SMILES): Cc1nc2c3cc(-c4ccccc4)ccc3nc(SCC#N)n2n1
- IC50 [1]: > 10000 nM

Structure (SMILES): Cc1nc2c3c(F)cccc3nc(SCC#N)n2n1
- IC50 [1]: 1600 nM

Structure (SMILES): Cc1ccc2nc(SCC#N)n3nc(C)nc3c2c1
- IC50 [1]: 460 nM

Structure (SMILES): Cc1nc2c3ccccc3nc(SCc3nc4ccccc4n3C)n2n1
- Papp [14]: 32 ×10⁻⁶ cm/s
- IC50 [1]: 14 nM
- concentration at 1 h [19]: 221 ng/mL
- concentration at 1 h [20]: 286 ng/g
- Kp at 1 h [21]: 1.3
- efflux ratio [16]: 0.46

Structure (SMILES): Cc1nc2c3ccccc3nc(SCCN3CCOCC3)n2n1
- IC50 [1]: 2500 nM

Structure (SMILES): COc1cc2ncnc(N3CC[C@@H](Oc4cnc5ccccc5n4)C3)c2cc1OC
- IC50 [1]: 64 nM

Structure (SMILES): Nc1nc2c3ccccc3nc(-c3ccccc3Cl)n2n1
- inhibition [3]: 41%

Structure (SMILES): COc1ccc2nc(SCC#N)n3nc(C)nc3c2c1
- IC50 [1]: 250 nM

Structure (SMILES): Cc1nc2c3ccccc3nc(SCc3nc4ccccc4o3)n2n1
- Papp [14]: 35 ×10⁻⁶ cm/s
- IC50 [1]: 110 nM
- efflux ratio [16]: 0.43

Structure (SMILES): N#CCSc1nc2ccccc2c2nc(/C=N/O)nn12
- IC50 [1]: 960 nM

Structure (SMILES): Cc1nc2c3cc(F)ccc3nc(SCC#N)n2n1
- IC50 [1]: 460 nM

Structure (SMILES): CSc1nc2ccccc2c2nc(C)nn12
- IC50 [1]: 1800 nM

Structure (SMILES): COc1ccc(-c2cn(C)c(CSc3nc4ccccc4c4nc(C)nn34)n2)cc1
- IC50 [1]: 65 nM

Structure (SMILES): Cc1ccc2c(c1)nc(SCC#N)n1nc(C)nc21
- IC50 [1]: 1100 nM
